Data on 17 compounds can be found in patent US6346622B1, “2-substituted 1,2-benzisothiazole derivatives and their use as serotonin antagonists (5-HT1A, 5HT1B and 5-HT1D)” (Abbott Laboratories, priority 1997, dated 2002).

Structures can show the parent of a compound that is named as a salt.

The first series deals with serotonin release in the cortex. Particulars: after systemic administration; cited from earlier work.
Turning to `COc1ccc(NC(=O)c2ccc(-c3ccc(-c4noc(C)n4)cc3C)cc2)cc1N1CCN(C)CC1` [GR 127 935], the “serotonin release in the cortex” value is “reduces serotonin release”.

A further series has as its system serotonin release in the dorsal raphe nucleus. Particulars: rat; together with paroxetine; cited from earlier work.
For the compound `COc1ccc(NC(=O)c2ccc(-c3ccc(-c4noc(C)n4)cc3C)cc2)cc1N1CCN(C)CC1` [GR 127 935], the “effect of paroxetine on serotonin release in the dorsal raphe nucleus” value is given as “potentiated”.

Test system in a further series: not given
Conditions: not given
As usually defined, the melting point is the temperature, or range, at which the solid turns liquid. For the compound `CC1(C)c2ccccc2S(=O)(=O)N1CCN1CCN(c2ccccc2C#N)CC1` (as salt: hydrochloride), the melting point is 228 °C. The compound `CC1(C)c2ccccc2S(=O)(=O)N1CCCN1CCN(c2ccc3ccccc3n2)CC1` displayed a melting point of 63 °C. Still for that read-out and setting: with `Cc1ccc(C)c(N2CCN(CCCN3C(C)(C)c4ccccc4S3(=O)=O)CC2)c1` (as salt: hydrochloride) the figure was 218 °C; with `COc1ccccc1N1CCN(CC(O)CN2C(C)(C)c3ccccc3S2(=O)=O)CC1` (stereo not drawn), 160 °C; with `Cc1cccc(N2CCN(CCN3C(C)(C)c4ccccc4S3(=O)=O)CC2)c1C` (as salt: hydrochloride), 291 °C. Still for that read-out and setting: with `CC1(C)c2ccccc2S(=O)(=O)N1CCCN1CCN(c2ncccn2)CC1` (as salt: hydrochloride) the figure was 263 °C. Still for that read-out and setting: with `CC1(C)c2ccc([N+](=O)[O-])cc2S(=O)(=O)N1CCCN1CCN(c2cccc3ccccc23)CC1` the figure was 203 °C; with `CC1(C)c2ccc(-n3cccc3)cc2S(=O)(=O)N1CCCN1CCN(c2cccc3ccccc23)CC1` (as salt: hydrochloride), 269 °C; with `C=C(CN1CCN(c2cccc3ccccc23)CC1)CN1C(C)(C)c2ccccc2S1(=O)=O`, 193 °C. In turn, `CC1(C)c2ccccc2S(=O)(=O)N1CCN1CCN(c2cccc3ccccc23)CC1` (as salt: hydrochloride) came in with a melting point of 282 °C. On the same count and under the same terms, with `CC1(C)c2ccccc2S(=O)(=O)N1CCCN1CCN(c2ccc(Cl)c3ccccc23)CC1` the figure was 151 °C; with `COc1ccc(N2CCN(CCN3C(C)(C)c4ccccc4S3(=O)=O)CC2)cc1` (as salt: hydrochloride), 207 °C; with `CC1(C)c2ccccc2S(=O)(=O)N1CCN1CCN(c2ncnc3ccccc23)CC1` (as salt: hydrochloride), 178 °C. Still for that read-out and setting: as for `CC1(C)c2ccccc2S(=O)(=O)N1CCCN1CCN(c2nc(-c3ccccc3)nc3ccccc23)CC1` (as salt: hydrochloride), the figure is 269 °C.

In turn, `CC1(C)c2ccccc2S(=O)(=O)N1CCN1CCN(c2cccc3c2CCC3)CC1` (as salt: hydrochloride) gave a melting point of 271 °C. Same read-out and setting: as for `CCC1(CC)c2ccccc2S(=O)(=O)N1CCCN1CCN(c2cccc3ccccc23)CC1`, the figure is 179 °C.
